22 compounds from US6875760B2 (Novo Nordisk A/S, priority 1999, dated 2005) can be followed below.

This assay addresses T1, cloned human glucagon receptor (Homo sapiens, UniProt P47871).
T1 construct: expressed in transfected cells; plasma membrane preparation
Briefly: Glucagon Binding Assay (II). The conditions noted are these: for IC50: plasma membranes of BHK cells expressing the receptor, read-out: Glu Bd Assay (II) IC50; for inhibition at 1 µM: screened at 1 μM, library compounds, read-out: displacement of the glucagon tracer when screened at 1 μM concentration in the glucagon binding assay II.

Where only a bound is given, the exact number is not on record here.

T1 sequence (P47871 26-477): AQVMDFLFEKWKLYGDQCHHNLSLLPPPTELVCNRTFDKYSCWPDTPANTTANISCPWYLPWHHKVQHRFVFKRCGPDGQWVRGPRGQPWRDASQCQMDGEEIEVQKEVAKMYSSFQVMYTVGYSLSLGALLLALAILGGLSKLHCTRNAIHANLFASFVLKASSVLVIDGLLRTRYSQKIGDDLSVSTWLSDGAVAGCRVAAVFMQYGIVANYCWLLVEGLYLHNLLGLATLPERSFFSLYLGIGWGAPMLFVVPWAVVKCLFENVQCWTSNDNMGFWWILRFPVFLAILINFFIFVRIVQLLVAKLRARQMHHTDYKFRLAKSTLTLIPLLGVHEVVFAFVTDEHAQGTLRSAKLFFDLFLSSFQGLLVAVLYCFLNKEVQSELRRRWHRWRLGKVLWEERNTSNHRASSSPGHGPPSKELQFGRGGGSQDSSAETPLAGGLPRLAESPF

By IC50 is commonly meant the concentration that gives 50% inhibition. For the compound `CC(C)(C)C1CCC(N(Cc2ccc(C(=O)Nc3nn[nH]n3)cc2)C(=O)Nc2cc(Cl)cc(Cl)c2)CC1` (stereo not shown) [Example 172, 4-[1-(4-tert-Butylcyclohexyl)-3-(3,5-dichlorophenyl)ureidomethyl]-N-(2H-tetrazol-5-yl)benzamide], the IC50 amounted to 7 nM. As for `CC(C)(C)C1CCC(N(Cc2ccc(C(=O)NCc3nn[nH]n3)cc2)C(=O)Nc2cc(Cl)cc(Cl)c2)CC1` (stereo not shown) [Example 173, 4-[1-(4-tert-Butylcyclohexyl)-3-(3,5-dichlorophenyl)ureidomethyl]-N-(2H-tetrazol-5-ylmethyl)benzamide], the IC50 was 23 nM.

As for `CC(C)(C)[C@H]1CC[C@H](N(Cc2ccc(C(=O)Nc3nn[nH]n3)cc2)C(=O)Nc2cc(Cl)cc(Cl)c2)CC1` [Example 174, 4-[1-(trans-4-tert-Butylcyclohexyl)-3-(3,5-dichlorophenyl)ureidomethyl]-N-(2H-tetrazol-5-yl)benzamide], the IC50 is 11 nM. Turning to `CC1CC(N(Cc2ccc(C(=O)NCCC(=O)O)cc2)C(=O)Nc2cc(Cl)cc(Cl)c2)CC(C)(C)C1` (stereo not shown) [Example 176, 3-{4-[3-(3,5-Dichlorophenyl)-1-(3,3,5-trimethylcyclohexyl)ureidomethyl]benzoylamino)propionic acid], the IC50 came out at 641 nM.

Take `CC1CC(C)CC(N(Cc2ccc(C(=O)NCCC(=O)O)cc2)C(=O)Nc2cc(Cl)cc(Cl)c2)C1` (stereo not shown) [Example 177, 3-{4-[3-(3,5-Dichlorophenyl)-1-(3,5-dimethylcyclohexyl)ureidomethyl]benzoylamino)propionic acid]: the concentration for half-maximal inhibition (IC50) worked out at 454 nM. Take `O=C(O)CCNC(=O)c1ccc(CN(C(=O)Nc2ccc(OC(F)(F)F)cc2)C2CCC3(CC2)SCCS3)cc1` [Example 178, 3-{4-[1-(1,4-Dithiaspiro[4.5]dec-8-yl)-3-(4-trifluoromethoxyphenyl)ureidomethyl]benzoylamino)propionic acid]: the IC50 was 999 nM. Consider `O=C(O)CCNC(=O)c1ccc(CN(CCc2cccc(Cl)c2)C(=O)Nc2ccc(OC(F)(F)F)cc2)cc1` [Example 180, 3-{4-[1-[2-(3-Chlorophenyl)ethyl]-3-(4-trifluoromethoxyphenyl)ureidomethyl]benzoylamino}propionic acid], for which the inhibition at 1 µM was above 50%. As to `O=C(O)CCNC(=O)c1ccc(CN(CCc2cccc(Cl)c2)C(=O)Nc2ccc(Cl)c(C(F)(F)F)c2)cc1` [Example 181, 3-{4-[1-[2-(3-Chlorophenyl)ethyl]-3-(4-chloro-3-trifluoromethylphenyl)ureidomethyl]benzoylamino}propionic acid], the inhibition at 1 µM was above 50%. For the compound `O=C(O)CCNC(=O)c1ccc(CN(C(=O)Nc2ccc(OC(F)(F)F)cc2)c2ccc3nc(S)sc3c2)cc1` [Example 182, 3-{4-[1-(2-Mercaptobenzothiazol-6-yl)-3-(4-trifluoromethoxyphenyl)ureidomethyl]benzoylamino}propionic acid], the inhibition at 1 µM is above 50%. With `O=C(O)CCNC(=O)c1ccc(CN(C(=O)Nc2ccc(Cl)c(C(F)(F)F)c2)c2ccc3nc(S)sc3c2)cc1` [Example 183, 3-{4-[3-(4-Chloro-3-trifluoromethylphenyl)-1-(2-mercaptobenzothiazol-6-yl)ureidomethyl]benzoylamino}propionic acid], the inhibition at 1 µM was above 50%.

As for `O=C(O)CCNC(=O)c1ccc(CN(C(=O)Nc2ccc(C(=O)O)cc2)c2ccc3c(c2)OCO3)cc1` [Example 184, 4-{3-(Benzo[1,3]dioxo-5-yl)-3-[4-(2-carboxyethylcarbamoyl)benzyl]ureido}benzoic acid], the inhibition at 1 µM is above 50%. Turning to `O=C(O)CCNC(=O)c1ccc(CN(C(=O)Nc2ccc(Cl)c(C(F)(F)F)c2)c2ccc(C3CCCCC3)cc2)cc1` [Example 185, 3-{4-[3-(4-Chloro-3-trifluoromethylphenyl)-1-(4-cyclohexylphenyl)ureidomethyl]benzoylamino}propionic acid], the inhibition at 1 µM was above 50%. Consider `Cc1cc(C)cc(NC(=O)N(Cc2ccc(C(=O)NCCC(=O)O)cc2)c2ccc(C3CCCCC3)cc2)c1` [Example 186, 3-{4-[1-(4-Cyclohexylphenyl)-3-(3,5-dimethylphenyl)ureidomethyl]benzoylamino}propionic acid], for which the inhibition at 1 µM was above 50%.

On to `O=C(O)CCNC(=O)c1ccc(CN(Cc2ccc(Br)cc2)C(=O)Nc2ccc(Cl)c(C(F)(F)F)c2)cc1` [Example 190, 3-{4-[1-(4-Bromobenzyl)-3-(4-chloro-3-trifluoromethylphenyl)ureidomethyl]benzoylamino}propionic acid], for which the inhibition at 1 µM was above 50%.

In the case of `O=C(O)CCNC(=O)c1ccc(CN(C(=O)Nc2ccc(Cl)c(C(F)(F)F)c2)c2ccc3c(c2)OC(F)(F)C(F)(F)O3)cc1` [Example 191, 3-{4-[3-(4-Chloro-3-trifluoromethyl-phenyl)-1-(2,2,3,3-tetrafluoro-2,3-dihydrobenzo[1,4]-dioxin-6-yl)ureidomethyl]benzoylamino}propionic acid], the inhibition at 1 µM is above 50%. On to `O=C(O)CCNC(=O)c1ccc(CN(C(=O)Nc2ccc(Cl)c(C(F)(F)F)c2)C2CCC(NC(=O)C(F)(F)F)CC2)cc1` (stereo not shown) [Example 192, 3-(4-{3-(4-Chloro-3-trifluoromethylphenyl)-1-[4-(2,2,2-trifluoroacetylamino)cyclohexyl]ureidomethyl}benzoylamino)propionic acid], for which the inhibition at 1 µM was above 50%.

As for `CC1CCCCN1CCCN(Cc1ccc(C(=O)NCCC(=O)O)cc1)C(=O)Nc1ccc(Cl)c(C(F)(F)F)c1` (stereo not shown) [Example 193, 3-(4-{3-(4-Chloro-3-trifluoromethylphenyl)-1-[3-(2-methylpiperidin-1-yl)propyl]ureidomethyl}benzoylamino)propionic acid], the inhibition at 1 µM is above 50%.

Turning to `CC(=O)N1CCc2cc(N(Cc3ccc(C(=O)NCCC(=O)O)cc3)C(=O)Nc3ccc(Cl)c(C(F)(F)F)c3)ccc21` [Example 194, 3-{4-[1-(1-Acetyl-2,3-dihydro-1H-indol-5-yl)-3-(4-chloro-3-trifluoromethylphenyl)ureidomethyl]benzoylamino}propionic acid], the inhibition at 1 µM was above 50%.

As to `O=C(O)CCNC(=O)c1ccc(CN(C(=O)Nc2ccc(Cl)c(C(F)(F)F)c2)c2nc3cc(Cl)c(Cl)cc3[nH]2)cc1` [Example 195, 3-{4-[3-(4-Chloro-3-trifluoromethylphenyl)-1-(5,6-dichloro-1H-benzimidazol-2-yl)ureidomethyl]benzoylamino}propionic acid], the inhibition at 1 µM is above 50%.

Consider `CC(C)(C)C1CCC(N(Cc2ccc(C(=O)NCCC(=O)O)cc2)C(=O)Nc2ccc(C(=O)O)cc2)CC1` (stereo not shown) [Example 196, 4-{3-(4-tert-Butylcyclohexyl)-3-[4-(2-carboxyethylcarbamoyl)benzyl]ureido}benzoic acid], for which the inhibition at 1 µM was above 50%. Same read-out and setting: then `Cc1cc(C)cc(NC(=O)N(Cc2ccc(C(=O)NCCC(=O)O)cc2)C2CCC(C(C)(C)C)CC2)c1` (stereo not shown) [Example 197, 3-{4-[1-(4-tert-Butylcyclohexyl)-3-(3,5-dimethylphenyl)ureidomethyl]benzoylamino}propionic acid], with above 50%; and `CC(C)(C)C1CCC(N(Cc2ccc(OCCCC(=O)O)cc2)C(=O)Nc2cccc(SC(F)(F)F)c2)CC1` (stereo not shown) [Example 198, 4-{4-[1-(4-tert-Butylcyclohexyl)-3-(3-trifluoromethylsulfanylphenyl)ureidomethyl]phenoxy}butyric acid], with above 50%.
